In the supplement of paper PMC10307832:

Assays:
Assay in all cases: relative viability (nuclei count vs DMSO), 5 days (fraction); higher = more cells survive
[1] = compound: C=CCc1cccc(/C=N/NC(=O)CN2CCN(Cc3ccccc3)CC2)c1O [PAC-1] + CS(=O)(=O)N1CCN(Cc2cc3nc(-c4cccc5[nH]ncc45)nc(N4CCOCC4)c3s2)CC1 [Pictilisib] (partner 1 µM)
Method in brief: (§1)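 Five library-drug doses in √10 steps were combined with a fixed anchor-drug dose, or a single drug was given alone, by pin tool to lung cancer cell lines in 1536-well plates the day after seeding. Nuclei were stained and counted after 5 days. Relative viability is the nuclei count in treated wells over that in vehicle wells, taken as the median of duplicate plates.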

[2] = compound: C=CC(=O)N1CCC[C@@H](n2nc(-c3ccc(Oc4ccccc4)cc3)c3c(N)ncnc32)C1 [Ibrutinib] + O=C(c1cc(Cc2n[nH]c(=O)c3ccccc23)ccc1F)N1CCN(C(=O)C2CC2)CC1 [Olaparib] (partner 8 µM)
Method in brief: as §1

[3] = compound: C=CC(=O)Nc1cc(-n2c(=O)ccc3cnc4ccc(-c5ccc(NS(C)(=O)=O)cc5)cc4c32)ccc1C [BMX-IN-1] + C[C@@H](Oc1cc(-c2cnn(C3CCNCC3)c2)cnc1N)c1c(Cl)ccc(F)c1Cl [Crizotinib] (partner 1 µM)
Method in brief: as §1

[4] = compound: C=CC(=O)N1CCC[C@@H](n2nc(-c3ccc(Oc4ccccc4)cc3)c3c(N)ncnc32)C1 [Ibrutinib]
Method in brief: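 MetaXpress counted nuclei in 4× images of lung cancer cell lines that had been fixed, permeabilised and Hoechst-stained in one step. Before that, cells in 1536-well plates were kept overnight at 37 °C, pinned with five √10-spaced library-drug doses on vehicle-anchored plates, and cultured 5 days without medium change. Viability takes treated-well nuclei over vehicle-well nuclei and uses the median across plates. Plates were accepted only at control CV below 25% and at least one doubling.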

SK-MES-1
relative viability ([1]; first compound 0.02 µM): 0.336 | relative viability ([1]; first compound 0.06325 µM): 0.297 | relative viability ([1]; first compound 0.2 µM): 0.336 | relative viability ([1]; first compound 2 µM): 0.322 | relative viability ([2]; first compound 0.005 µM): 0.748 | relative viability ([2]; first compound 0.01581 µM): 0.639 | relative viability ([2]; first compound 0.05 µM): 0.652 | relative viability ([2]; first compound 0.1581 µM): 0.879 | relative viability ([2]; first compound 0.5 µM): 0.461 | relative viability ([3]; first compound 0.02 µM): 1.08 | relative viability ([3]; first compound 0.2 µM): 1.3 | relative viability ([3]; first compound 0.6325 µM): 1.08 | relative viability ([3]; first compound 2 µM): 1.1 | relative viability ([4]; 0.01581 µM): 0.989 | relative viability ([4]; 0.05 µM): 0.888 | relative viability ([4]; 0.1581 µM): 1.02 | relative viability ([4]; 0.5 µM): 0.543
